Data as given in the supplement of paper PMC10307832.

How the values were obtained:
Assay in all cases: relative viability (nuclei count vs DMSO), 5 days (fraction); higher = more cells survive
[1] = system: COR-L23
Procedure, shortened: (§1)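 For relative viability, nuclei counts in treated wells were divided by those in vehicle wells. Lung cancer cell lines had been pin-tool dosed in 1536-well plates the day after seeding and cultured for 5 days, then fixed and stained in one step (final 0.05% Triton X-100, 1% formaldehyde, 1 ug/ml Hoechst) and imaged at 4×. Doses were one drug alone or a fixed anchor-drug dose plus five library-drug doses (not always all listed) in √10 steps, and values are duplicate-plate medians.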

[2] = system: NCI-H2405
Procedure, shortened: as §1

[3] = system: NCI-H322M
Procedure, shortened: as §1

[4] = system: NCI-H1734
Procedure, shortened: as §1

[5] = system: H3255
Procedure, shortened: as §1

[6] = system: NCI-H647
Procedure, shortened: as §1

[7] = system: NCI-H23
Procedure, shortened: as §1

[8] = system: LK-2
Procedure, shortened: as §1

[9] = system: PC-14
Procedure, shortened: as §1

[10] = system: NCI-H2087
Procedure, shortened: as §1

[11] = system: LXF-289
Procedure, shortened: as §1

[12] = system: NCI-H2085
Procedure, shortened: as §1

[13] = system: UMC-11
Procedure, shortened: as §1

[14] = system: NCI-H2347
Procedure, shortened: as §1

[15] = system: NCI-H1651
Procedure, shortened: as §1

[16] = system: EKVX
Procedure, shortened: as §1

[17] = system: RERF-LC-KJ
Procedure, shortened: as §1

[18] = system: NCI-H3122
Procedure, shortened: as §1

[19] = system: NCI-H358
Procedure, shortened: as §1

[20] = system: A-427
Procedure, shortened: as §1

[21] = system: NCI-H1993
Procedure, shortened: as §1

[22] = system: SK-LU-1
Procedure, shortened: as §1

[23] = system: NCI-H1437
Procedure, shortened: as §1

[24] = system: NCI-H460
Procedure, shortened: as §1

Nc1cccc2c1CN(C1CCC(=O)NC1=O)C2=O (stereo not drawn) [Lenalidomide] + CS(=O)(=O)N1CCN(Cc2cc3nc(-c4cccc5[nH]ncc45)nc(N4CCOCC4)c3s2)CC1 [Pictilisib] (partner 1 µM)
relative viability ([1]; first compound 0.253 µM): 0.778
relative viability ([1]; first compound 0.8 µM): 0.7
relative viability ([1]; first compound 2.53 µM): 0.924
relative viability ([1]; first compound 8 µM): 0.64
relative viability ([2]; first compound 0.253 µM): 0.423
relative viability ([2]; first compound 0.8 µM): 0.438
relative viability ([2]; first compound 2.53 µM): 0.37
relative viability ([2]; first compound 8 µM): 0.269
relative viability ([3]; first compound 0.253 µM): 0.511
relative viability ([3]; first compound 0.8 µM): 0.596
relative viability ([3]; first compound 2.53 µM): 0.546
relative viability ([3]; first compound 8 µM): 0.49
relative viability ([4]; first compound 0.253 µM): 0.438
relative viability ([4]; first compound 0.8 µM): 0.489
relative viability ([4]; first compound 2.53 µM): 0.465
relative viability ([4]; first compound 8 µM): 0.329
relative viability ([5]; first compound 0.253 µM): 0.459
relative viability ([5]; first compound 0.8 µM): 0.519
relative viability ([5]; first compound 2.53 µM): 0.526
relative viability ([5]; first compound 8 µM): 0.406
relative viability ([6]; first compound 0.253 µM): 0.417
relative viability ([6]; first compound 2.53 µM): 0.535
relative viability ([6]; first compound 8 µM): 0.281
relative viability ([7]; first compound 0.253 µM): 0.372
relative viability ([7]; first compound 0.8 µM): 0.576
relative viability ([7]; first compound 2.53 µM): 0.523
relative viability ([7]; first compound 8 µM): 0.378
relative viability ([8]; first compound 0.253 µM): 0.602
relative viability ([8]; first compound 2.53 µM): 0.599
relative viability ([8]; first compound 8 µM): 0.538
relative viability ([9]; first compound 0.253 µM): 0.691
relative viability ([9]; first compound 0.8 µM): 0.618
relative viability ([9]; first compound 2.53 µM): 0.719
relative viability ([9]; first compound 8 µM): 0.713
relative viability ([10]; first compound 0.253 µM): 0.982
relative viability ([10]; first compound 0.8 µM): 0.436
relative viability ([10]; first compound 2.53 µM): 0.972
relative viability ([10]; first compound 8 µM): 0.732
relative viability ([11]; first compound 0.253 µM): 0.835
relative viability ([11]; first compound 0.8 µM): 0.827
relative viability ([11]; first compound 2.53 µM): 0.864
relative viability ([11]; first compound 8 µM): 0.845
relative viability ([12]; first compound 0.253 µM): 0.451
relative viability ([12]; first compound 0.8 µM): 0.409
relative viability ([12]; first compound 2.53 µM): 0.428
relative viability ([12]; first compound 8 µM): 0.371
relative viability ([13]; first compound 0.253 µM): 0.893
relative viability ([13]; first compound 0.8 µM): 0.512
relative viability ([13]; first compound 2.53 µM): 0.819
relative viability ([13]; first compound 8 µM): 0.627
relative viability ([14]; first compound 0.253 µM): 0.396
relative viability ([14]; first compound 0.8 µM): 0.634
relative viability ([14]; first compound 2.53 µM): 0.602
relative viability ([14]; first compound 8 µM): 0.49
relative viability ([15]; first compound 0.253 µM): 0.674
relative viability ([15]; first compound 0.8 µM): 0.574
relative viability ([15]; first compound 2.53 µM): 0.735
relative viability ([15]; first compound 8 µM): 0.691
relative viability ([16]; first compound 0.253 µM): 0.456
relative viability ([16]; first compound 0.8 µM): 0.39
relative viability ([16]; first compound 2.53 µM): 0.401
relative viability ([16]; first compound 8 µM): 0.366
relative viability ([17]; first compound 0.253 µM): 0.494
relative viability ([17]; first compound 0.8 µM): 0.46
relative viability ([17]; first compound 2.53 µM): 0.543
relative viability ([17]; first compound 8 µM): 0.534
relative viability ([18]; first compound 0.253 µM): 0.653
relative viability ([18]; first compound 0.8 µM): 0.733
relative viability ([18]; first compound 2.53 µM): 0.589
relative viability ([18]; first compound 8 µM): 0.414
relative viability ([19]; first compound 0.253 µM): 0.399
relative viability ([19]; first compound 0.8 µM): 0.428
relative viability ([19]; first compound 2.53 µM): 0.384
relative viability ([19]; first compound 8 µM): 0.302
relative viability ([20]; first compound 0.253 µM): 0.796
relative viability ([20]; first compound 2.53 µM): 0.744
relative viability ([20]; first compound 8 µM): 0.676
relative viability ([21]; first compound 0.253 µM): 0.824
relative viability ([21]; first compound 0.8 µM): 0.827
relative viability ([21]; first compound 2.53 µM): 0.872
relative viability ([21]; first compound 8 µM): 0.803
relative viability ([22]; first compound 0.253 µM): 0.602
relative viability ([22]; first compound 0.8 µM): 0.58
relative viability ([22]; first compound 2.53 µM): 0.704
relative viability ([22]; first compound 8 µM): 0.502
relative viability ([23]; first compound 0.253 µM): 0.547
relative viability ([23]; first compound 0.8 µM): 0.591
relative viability ([23]; first compound 2.53 µM): 0.592
relative viability ([23]; first compound 8 µM): 0.344
relative viability ([24]; first compound 0.253 µM): 0.363
relative viability ([24]; first compound 0.8 µM): 0.263
relative viability ([24]; first compound 2.53 µM): 0.25
relative viability ([24]; first compound 8 µM): 0.264
